pIC50: −log10 of the molar value. Counter-ions that a name gives are not always drawn.
Legend:
[1] = biological target: PI3Kδ (Homo sapiens (Human), UniProt O00329); assay: PI3K Enzyme Assay (Example A2), [γ-33P]ATP filter plate; format: biochemical
How it was run: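 Recombinant PI3Kδ at 2.9 nM with 50 µM PIP2 in MOPS pH 6.7, MgCl2, DTT, CHAPS, 0.5% DMSO; started with 1000 μM ATP including [γ-33P]ATP, 180 min at room temperature. Phosphorylated product captured on PVDF filter plates and scintillation-counted; IC50 from percent-control activity vs log concentration.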

[2] = test system: SUDHL-6 cells; assay: SUDHL-6 Cell Proliferation Assay (Example B3); format: cell-based; conditions: 3 days, Cell Titer-GLO
Procedure: Example B3: SUDHL-6 Cell Proliferation Assay
SUDHL-6 cell line (diffuse large B cell lymphoma) was purchased from ATCC (Manassas, Va.) and maintained in the culture medium recommended (RPMI and 10% FBS). To measure the anti-proliferation activity of the compounds through ATP quantitation, the SUDHL-6 cells was plated with the culture medium (5000 cells/well/per 200 μl) into 96-well polystyrene clear black tissue culture plate (Greiner-bio-one through VWR, NJ) in the presence or absence of a concentration range of test compounds. After 3 days, Cell Titer-GLO Luminescent (Promega, Madison, Wis.) cell culture agent was added to each well for 10 minutes at room temperature to stabilize the luminescent signal. This determines the number of viable cells in culture based on quantitation of the ATP present, which signals the presence of metabolically active cells. Luminescence was measured with the TopCount 384 (Packard Bioscience through Perkin Elmer, Boston, Mass.). […] IC50 data for the Examples is presented in Table 4 determined by the assay of Example B3.

[3] = biological target: PI3Kδ (p110δ/p85α) (Homo sapiens (Human), UniProt O00329); assay: PI3Kδ Scintillation Proximity Assay (Example A3); format: biochemical
Excerpt: Example A3: PI3Kδ Scintillation Proximity Assay
[γ-^33P]ATP (10 mCi/mL) was purchased from Perkin-Elmer (Waltham, Mass.). Lipid kinase substrate, D-myo-Phosphatidylinositol 4,5-bisphosphate (PtdIns(4,5)P2)D (+)-sn-1,2-di-O-octanoylglyceryl, 3-O-phospho linked (PIP2), CAS 204858-53-7, was purchased from Echelon Biosciences (Salt Lake City, Utah). PI3Kδ (p110δ/p85α) was purchased from Millipore (Bedford, Mass.). ATP, MgCl2, DTT, EDTA, MOPS and CHAPS were purchased from Sigma-Aldrich (St. Louis, Mo.). Wheat Germ Agglutinin (WGA) YSi SPA Scintillation Beads was purchased from GE healthcare life sciences (Piscataway, N.J.).
The kinase reaction was conducted in polystyrene 384-well matrix white plate from Thermo Fisher Scientific in a final volume of 25 μL. Inhibitors were first diluted serially in DMSO and added to the plate wells before the addition of other reaction components. The final concentration of DMSO in the assay was 0.5%. The PI3K assays were carried out at room temperature in 20 mM MOPS, pH 6.7, 10 mM MgCl2, 5 mM DTT and CHAPS 0.03%. Reactions were initiated by the addition of ATP, the final reaction mixture consisted of 20 µM PIP2, 20 µM ATP, 0.2 μCi [γ-^33P]ATP, 4 nM PI3Kδ. Reactions were incubated for 210 min and terminated by the addition of 40 μL SPA beads suspended in quench buffer: 150 mM potassium phosphate pH 8.0, 20% glycerol. 25 mM EDTA, 400 µM ATP. The final concentration of SPA beads was 1.0 mg/mL. After the plate sealing, plates were shaken overnight at room temperature and centrifuged at 1800 rpm for 10 minutes, the radioactivity of the product was determined by scintillation counting on Topcount (Perkin-Elmer). IC50 determination was performed by fitting the curve of percent control activity versus the log of the inhibitor concentration using the GraphPad Prism 3.0 software. […] IC50 data for Examples 1-25 is presented in Table 3 for PI3Kδ as determined by the assay of Example A2 or A3 as indicated

Sequence of PI3Kδ (O00329 whole entry): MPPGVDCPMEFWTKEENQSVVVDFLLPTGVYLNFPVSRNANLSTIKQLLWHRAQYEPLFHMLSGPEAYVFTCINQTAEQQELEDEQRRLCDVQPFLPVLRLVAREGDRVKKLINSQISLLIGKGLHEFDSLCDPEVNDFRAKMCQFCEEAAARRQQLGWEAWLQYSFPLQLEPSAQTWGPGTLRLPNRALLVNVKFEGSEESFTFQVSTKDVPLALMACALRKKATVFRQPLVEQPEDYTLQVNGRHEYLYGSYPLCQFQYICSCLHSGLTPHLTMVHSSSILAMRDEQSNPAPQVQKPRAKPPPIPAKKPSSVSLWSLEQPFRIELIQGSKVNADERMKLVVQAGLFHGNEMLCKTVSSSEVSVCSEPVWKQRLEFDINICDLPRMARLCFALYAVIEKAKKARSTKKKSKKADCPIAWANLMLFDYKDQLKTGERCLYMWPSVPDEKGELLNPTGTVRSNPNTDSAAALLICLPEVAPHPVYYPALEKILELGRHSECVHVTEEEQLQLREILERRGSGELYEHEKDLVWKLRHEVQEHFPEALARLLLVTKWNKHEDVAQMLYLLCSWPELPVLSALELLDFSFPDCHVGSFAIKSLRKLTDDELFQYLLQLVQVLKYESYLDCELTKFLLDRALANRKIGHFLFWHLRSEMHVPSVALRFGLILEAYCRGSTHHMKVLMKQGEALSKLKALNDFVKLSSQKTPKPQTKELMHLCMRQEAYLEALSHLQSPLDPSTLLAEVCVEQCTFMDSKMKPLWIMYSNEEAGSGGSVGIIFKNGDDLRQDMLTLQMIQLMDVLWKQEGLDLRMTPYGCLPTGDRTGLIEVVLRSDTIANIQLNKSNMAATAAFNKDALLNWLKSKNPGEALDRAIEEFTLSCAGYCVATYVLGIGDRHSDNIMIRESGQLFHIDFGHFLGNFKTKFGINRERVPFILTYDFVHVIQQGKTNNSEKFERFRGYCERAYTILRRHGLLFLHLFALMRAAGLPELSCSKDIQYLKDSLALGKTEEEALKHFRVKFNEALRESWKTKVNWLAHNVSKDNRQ
Sequence of PI3Kδ (P27986 whole entry partner): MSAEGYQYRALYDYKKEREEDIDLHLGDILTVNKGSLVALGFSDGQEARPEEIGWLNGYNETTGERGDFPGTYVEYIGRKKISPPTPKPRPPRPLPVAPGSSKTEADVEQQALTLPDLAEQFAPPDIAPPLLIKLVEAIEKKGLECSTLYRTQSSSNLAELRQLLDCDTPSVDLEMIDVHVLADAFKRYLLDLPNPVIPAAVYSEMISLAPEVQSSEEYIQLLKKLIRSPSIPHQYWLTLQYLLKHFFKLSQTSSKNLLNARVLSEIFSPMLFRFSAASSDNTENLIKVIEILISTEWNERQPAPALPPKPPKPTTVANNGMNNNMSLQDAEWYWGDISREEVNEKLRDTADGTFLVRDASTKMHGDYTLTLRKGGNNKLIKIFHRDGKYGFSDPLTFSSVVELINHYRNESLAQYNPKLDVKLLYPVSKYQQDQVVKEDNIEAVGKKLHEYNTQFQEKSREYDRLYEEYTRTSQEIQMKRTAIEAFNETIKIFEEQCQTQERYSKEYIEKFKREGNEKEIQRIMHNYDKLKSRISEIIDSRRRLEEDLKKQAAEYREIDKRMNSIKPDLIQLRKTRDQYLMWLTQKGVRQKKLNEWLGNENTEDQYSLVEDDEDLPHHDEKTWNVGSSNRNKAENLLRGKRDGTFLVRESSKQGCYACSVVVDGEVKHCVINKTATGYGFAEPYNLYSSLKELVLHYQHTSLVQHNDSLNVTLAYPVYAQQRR
Sequence of PI3Kδ (p110δ/p85α) (O00329 whole entry): as the sequence (O00329 whole entry) above
Sequence of PI3Kδ (p110δ/p85α) (P27986 whole entry partner): as the sequence (P27986 whole entry partner) above

Row | Structure (SMILES) | pIC50 [1] | pIC50 [2] | pIC50 ([2]; Homo sapiens, SU-DHL-6, 72 h) | pIC50 [3]
1 | CC(=O)N1CC(N2Cc3c(F)c(Cl)cc(C(C)n4nc(C)c5c(N)ncnc54)c3OC(C)C2)C1 (single isomer, unassigned) [Example 29, 1-{1-[4-(1-Acetylazetidin-3-yl)-7-chloro-6-fluoro-2-methyl-2,3,4,5-tetrahydro-1,4-benzoxazepin-9-yl]ethyl}-3-methyl-1H-pyrazolo[3,4-d]pyrimidin-4-amine] | ≥ 7.00 | ≥ 6.30 | – | –
2 | Cc1nn(C(C)c2cc(Cl)c(C#N)c3c2OC(C)CN(CCO)C3)c2ncnc(N)c12 (single isomer, unassigned) [Example 63, 9-[1-(4-Amino-3-methyl-1H-pyrazolo[3,4-d]pyrimidin-1-yl)ethyl]-7-chloro-4-(2-hydroxyethyl)-2-methyl-2,3,4,5-tetrahydro-1,4-benzoxazepine-6-carbonitrile] | ≥ 7.00 | ≥ 6.30 | – | –
3 | CC(=O)N1CC(N2Cc3c(F)c(Cl)cc(C(C)n4nc(C)c5c(N)ncnc54)c3OC(C)C2)C1 (single isomer, unassigned) [Example 32, 1-{1-[4-(1-Acetylazetidin-3-yl)-7-chloro-6-fluoro-2-methyl-2,3,4,5-tetrahydro-1,4-benzoxazepin-9-yl]ethyl}-3-methyl-1H-pyrazolo[3,4-d]pyrimidin-4-amine] | ≥ 7.00 | ≥ 6.30 | – | –
4 | Cc1nn(C(C)c2cc(Cl)c(F)c3c2OC(C)CN(S(C)(=O)=O)C3)c2ncnc(N)c12 (single isomer, unassigned) [Example 37, 1-{1-[7-Chloro-6-fluoro-2-methyl-4-(methylsulfonyl)-2,3,4,5-tetrahydro-1,4-benzoxazepin-9-yl]ethyl}-3-methyl-1H-pyrazolo[3,4-d]pyrimidin-4-amine] | ≥ 7.00 | – | ≥ 6.30 | –
5 | Cc1nn(C(C)c2cc(Cl)c(F)c3c2OC(C)CN(S(C)(=O)=O)C3)c2ncnc(N)c12 (single isomer, unassigned) [Example 40, 1-{1-[7-Chloro-6-fluoro-2-methyl-4-(methylsulfonyl)-2,3,4,5-tetrahydro-1,4-benzoxazepin-9-yl]ethyl}-3-methyl-1H-pyrazolo[3,4-d]pyrimidin-4-amine] | ≥ 7.00 | ≥ 6.30 | – | –
6 | CC(=O)N1CC(N2Cc3c(C#N)c(Cl)cc(C(C)n4nc(C)c5c(N)ncnc54)c3OC(C)C2)C1 (single isomer, unassigned) [Example 49, 4-(1-Acetylazetidin-3-yl)-9-[1-(4-amino-3-methyl-1H-pyrazolo[3,4-d]pyrimidin-1-yl)ethyl]-7-chloro-2-methyl-2,3,4,5-tetrahydro-1,4-benzoxazepine-6-carbonitrile] | ≥ 7.00 | ≥ 6.30 | – | –
7 | CC(=O)N1CC(N2Cc3c(F)c(Cl)cc(C(C)n4nc(C)c5c(N)ncnc54)c3OC(C)C2)C1 (single isomer, unassigned) [Example 30, 1-{1-[4-(1-Acetylazetidin-3-yl)-7-chloro-6-fluoro-2-methyl-2,3,4,5-tetrahydro-1,4-benzoxazepin-9-yl]ethyl}-3-methyl-1H-pyrazolo[3,4-d]pyrimidin-4-amine] | ≥ 7.00 | ≥ 6.30 | – | –
8 | Cc1c(Cl)cc(C(C)n2nc(C)c3c(N)ncnc32)c2c1CN(S(C)(=O)=O)CCO2 (centres unmarked) [Example 13, 1-{1-[7-Chloro-6-methyl-4-(methylsulfonyl)-2,3,4,5-tetrahydro-1,4-benzoxazepin-9-yl]ethyl}-3-methyl-1H-pyrazolo[3,4-d]pyrimidin-4-amine trifluoroacetate] | – | – | – | ≥ 7.00
9 | Cc1nn(C(C)c2cc(Cl)c(C#N)c3c2OC(C)CN(CCO)C3)c2ncnc(N)c12 (single isomer, unassigned) [Example 62, 9-[1-(4-Amino-3-methyl-1H-pyrazolo[3,4-d]pyrimidin-1-yl)ethyl]-7-chloro-4-(2-hydroxyethyl)-2-methyl-2,3,4,5-tetrahydro-1,4-benzoxazepine-6-carbonitrile] | ≥ 7.00 | – | ≥ 6.30 | –
10 | Cc1c(Cl)cc(C(C)n2nc(C)c3c(N)ncnc32)c2c1CN(C)CCO2 (centres unmarked) [Example 9, 1-[1-(7-Chloro-4,6-dimethyl-2,3,4,5-tetrahydro-1,4-benzoxazepin-9-yl)ethyl]-3-methyl-1H-pyrazolo[3,4-d]pyrimidin-4-amine bis(trifluoroacetate)] | – | – | – | ≥ 7.00
11 | Cc1c(Cl)cc(C(C)n2nc(C)c3c(N)ncnc32)c2c1CN(C(C)C)CCO2 (centres unmarked) [Example 10, 1-[1-(7-Chloro-4-isopropyl-6-methyl-2,3,4,5-tetrahydro-1,4-benzoxazepin-9-yl)ethyl]-3-methyl-1H-pyrazolo[3,4-d]pyrimidin-4-amine bis(trifluoroacetate)] | – | – | – | ≥ 7.00
12 | CCC(=O)N1CCOc2c(C(C)n3nc(C)c4c(N)ncnc43)cc(Cl)c(C)c2C1 (centres unmarked) [Example 20, 1-[1-(7-Chloro-6-methyl-4-propionyl-2,3,4,5-tetrahydro-1,4-benzoxazepin-9-yl)ethyl]-3-methyl-1H-pyrazolo[3,4-d]pyrimidin-4-amine trifluoroacetate] | – | – | – | ≥ 7.00
13 | Cc1c(Cl)cc(C(C)n2nc(C)c3c(N)ncnc32)c2c1CN(C(=O)CC#N)CCO2 (centres unmarked) [Example 12, 3-[9-[1-(4-Amino-3-methyl-1H-pyrazolo[3,4-d]pyrimidin-1-yl)ethyl]-7-chloro-6-methyl-2,3-dihydro-1,4-benzoxazepin-4(5H)-yl]-3-oxopropanenitrile trifluoroacetate] | – | – | – | ≥ 7.00
14 | Cc1noc(C)c1S(=O)(=O)N1CCOc2c(C(C)n3nc(C)c4c(N)ncnc43)cc(Cl)c(C)c2C1 (centres unmarked) [Example 17, 1-(1-{7-Chloro-4-[(3,5-dimethylisoxazol-4-yl)sulfonyl]-6-methyl-2,3,4,5-tetrahydro-1,4-benzoxazepin-9-yl}yl)ethyl)-3-methyl-1H-pyrazolo[3,4-d]pyrimidin-4-amine trifluoroacetate] | – | – | – | ≥ 7.00
15 | Cc1c(Cl)cc(C(C)n2nc(C)c3c(N)ncnc32)c2c1CN(CC#N)CCO2 (centres unmarked) [Example 11, [9-[1-(4-Amino-3-methyl-1H-pyrazolo[3,4-d]pyrimidin-1-yl)ethyl]-7-chloro-6-methyl-2,3-dihydro-1,4-benzoxazepin-4(5H)-yl]acetonitrile bis(trifluoroacetate)] | – | – | – | ≥ 7.00
16 | CC(=O)N1CC(N2CCOc3c(C(C)n4nc(C)c5c(N)ncnc54)cc(Cl)c(C)c3C2)C1 (centres unmarked) [Example 4, 1-{1-[4-(1-Acetylazetidin-3-yl)-7-chloro-6-methyl-2,3,4,5-tetrahydro-1,4-benzoxazepin-9-yl]ethyl}-3-methyl-1H-pyrazolo[3,4-d]pyrimidin-4-amine] | – | – | – | ≥ 7.00
17 | CC(=O)N1CC(N2Cc3c(F)c(Cl)cc(C(C)n4nc(C)c5c(N)ncnc54)c3OC(C)C2)C1 (single isomer, unassigned) [Example 28, 1-{1-[4-(1-Acetylazetidin-3-yl)-7-chloro-6-fluoro-2-methyl-2,3,4,5-tetrahydro-1,4-benzoxazepin-9-yl]ethyl}-3-methyl-1H-pyrazolo[3,4-d]pyrimidin-4-amine] | ≥ 7.00 | – | ≥ 6.30 | –

— patent US9944646B2, “Bicyclic azaheterocyclobenzylamines as PI3K inhibitors” (Incyte Corporation, priority 2012, dated 2018)
